Test results published in patent US8329914B2, “Cyclic benzimidazole derivatives useful as anti-diabetic agents” (Merck Sharp & Dohme Corp, priority 2008, dated 2012).

Legend:
[1] = target: recombinant human AMPK complex 1 (containing α1β1γ1) (Homo sapiens, UniProt Q13131+Q9Y478); assay: AMPKSAMSF (in vitro AMPK activation assay); type: biochemical; settings: recombinant human AMPK complex 1 (α1β1γ1); for Emax: basal activity subtracted, read-out: % Maximum AMP Activation of human AMPK Complex 1
recombinant human AMPK complex 1 (containing α1β1γ1), sequence (Q13131 whole entry): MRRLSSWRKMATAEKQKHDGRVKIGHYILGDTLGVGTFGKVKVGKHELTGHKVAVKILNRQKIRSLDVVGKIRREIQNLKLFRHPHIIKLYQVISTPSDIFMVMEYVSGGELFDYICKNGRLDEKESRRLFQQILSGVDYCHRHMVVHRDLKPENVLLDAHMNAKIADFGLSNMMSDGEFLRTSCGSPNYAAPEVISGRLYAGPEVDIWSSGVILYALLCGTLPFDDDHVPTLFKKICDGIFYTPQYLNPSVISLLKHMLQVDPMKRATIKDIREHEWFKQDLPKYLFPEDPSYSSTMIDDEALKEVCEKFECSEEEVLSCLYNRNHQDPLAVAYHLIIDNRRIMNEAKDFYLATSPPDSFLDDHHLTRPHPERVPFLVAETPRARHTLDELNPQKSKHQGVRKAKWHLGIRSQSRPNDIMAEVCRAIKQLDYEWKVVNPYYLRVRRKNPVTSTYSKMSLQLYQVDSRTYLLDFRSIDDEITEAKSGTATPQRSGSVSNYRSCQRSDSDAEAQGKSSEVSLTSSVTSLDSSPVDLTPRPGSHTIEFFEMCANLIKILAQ
recombinant human AMPK complex 1 (containing α1β1γ1), sequence (Q9Y478 whole entry): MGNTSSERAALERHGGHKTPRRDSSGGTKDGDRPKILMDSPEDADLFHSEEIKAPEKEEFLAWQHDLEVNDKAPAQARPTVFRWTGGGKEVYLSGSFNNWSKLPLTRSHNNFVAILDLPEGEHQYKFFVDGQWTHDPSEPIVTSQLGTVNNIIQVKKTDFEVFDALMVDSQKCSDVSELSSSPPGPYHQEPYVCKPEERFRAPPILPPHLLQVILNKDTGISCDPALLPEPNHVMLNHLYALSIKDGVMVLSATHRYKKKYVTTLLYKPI
recombinant human AMPK complex 1 (containing α1β1γ1), sequence (P54619 whole entry partner): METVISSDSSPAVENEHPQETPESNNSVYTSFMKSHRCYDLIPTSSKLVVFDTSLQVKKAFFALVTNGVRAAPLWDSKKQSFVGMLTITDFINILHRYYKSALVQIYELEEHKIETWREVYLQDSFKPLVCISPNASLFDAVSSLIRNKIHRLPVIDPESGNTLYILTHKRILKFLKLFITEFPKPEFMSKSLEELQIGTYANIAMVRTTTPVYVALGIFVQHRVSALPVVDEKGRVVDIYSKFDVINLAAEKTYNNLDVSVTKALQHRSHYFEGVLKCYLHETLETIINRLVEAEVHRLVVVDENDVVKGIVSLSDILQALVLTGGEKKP
Experimental: The recombinant human AMPK complex 1 (containing α1β1γ1) was obtained from baculovirus expression system. Recombinant viruses were generated by cotransfection of AMPK/pBacPak9 clones with Baculogold baculovirus DNA (Pharmingen) in spodoptera frugiperda 21 cells according to the manufacturer's instructions. Each round of virus amplification was performed for 5 days in Grace's medium containing 10% serum. Virus that had been subjected to three rounds of amplification was used for all protein production procedures. To express the AMPK complex, sf21 cells were adapted to serum free medium (SF900 II, Invitrogen) by sequential dilution from serum containing stocks into SF900II medium and maintained in shaker flasks at 90 rpm at 27° C. The recombinant AMPK enzyme complex was produced by triple infection, one recombinant virus for each of the subunits, in sf21 cells under serum free conditions. Cells were infected in log phase, 1×10^6 cells/ml, at a multiplicity of infection of ˜5. Cells were harvested by centrifugation at 10,000×g for 15 minutes after 72 hours of infection with viruses. The insect cell pellet from 2 liters of culture was resuspended in 50 ml lysis buffer (20 mM Tris-HCl, 50 mM NaCl, 50 mM NaF, 30 mM Na PPi, 0.25 M sucrose, 10 mM ZnCl2, 2 mM DTT, 0.4 mg/ml digitonin) and subjected to two cycles of freeze-thaw lysis in a dry-ice ethanol bath. Insoluble material was removed by centrifugation at 10,000×g and the supernatant was fractionated with use of polyethylene glycol (PEG). The protein fraction precipitating between 2.5 and 6% PEG was used for further purification using a Blue-Sepharose step (Zhou et al, J. Clin Invest. 108, 1167-1174, 2001).
The total in vitro AMPK activation assay volume is 50 μl in a 96-well plate. The reaction mixture contained 100 μM ATP (0.5 μCi ^33P-ATP per reaction), and 50 μM SAMS (HMRSAMSGLHLVKRR) in a buffer (20 mM HEPES, pH 7.0, 5 mM MgCl2, 0.01% Brij35). The reaction was initiated with addition of the enzyme. After 30-minute incubation at 30° C., the reaction was stopped by addition of 80 μl 1% H3PO4. Aliquots (100 μl) were transferred to 96-well MultiScreen plates (MAPHNOB50; Millipore Corp., Bedford, Mass., USA). The plate was washed three times with 1% H3PO4 followed by detection in a Top-count. The counts per minute from the basal activity (the reaction without activator) was subtracted from each well and the data were expressed as % maximum AMP activation followed by EC50 calculation.

ob/ob and db/db mice = settings: following 8 weeks of administration; cited from earlier work

Row | Structure (SMILES) | Emax [1] [%] | further results
1 | O=P(O)(O)CSc1nc2cc(C#Cc3ccccc3O)c(Cl)cc2[nH]1 [Example 9] | > 60 | 
2 | Cc1cc(-c2cc3nc(SCP(=O)(O)O)[nH]c3cc2Cl)ccc1Cl [Example 12, [6-Chloro-5-(4-chloro-3-methyl-phenyl)-1H-benzoimidazol-2ylsulfanylmethyl]-phosphonic acid] | > 60 | 
3 | O=P(O)(O)CSc1nc2cc(C#Cc3cccc(F)c3)c(Cl)cc2[nH]1 [Example 4] | > 60 | 
4 | O=P(O)(O)CSc1nc2cc(-c3ccc(Cl)c(Cl)c3)c(Cl)cc2[nH]1 [Example 16, [6-Chloro-5-(3,4-dichloro-phenyl)-1H-benzoimidazol-2-ylsulfanylmethyl]-phosphonic acid] | > 60 | 
5 | O=P(O)(O)CSc1nc2cc(C#Cc3ccccc3F)c(Cl)cc2[nH]1 [Example 6] | > 60 | 
6 | CCOP(=O)(CSc1nc2cc(-c3ccc(Br)cc3)c(Cl)cc2[nH]1)OCC [Example 13] | > 60 | 
7 | O=P(O)(O)CSc1nc2cc(C#Cc3ccc(F)cc3)c(Cl)cc2[nH]1 [Example 2] | > 60 | 
8 | O=P(O)(O)CSc1nc2cc(-c3ccc(-c4cccnc4)cc3)c(Cl)cc2[nH]1 [Example 22, (5-chloro-6-(4-(pyridin-3-yl)phenyl)-1H-benzo[d]imidazol-2-ylthio)methyl-phosphonic acid] |  | EC50 [1]: 82 nM
9 | O=P(O)(O)CSc1nc2cc(Cl)c(C#Cc3ccccc3)cc2[nH]1 [Example 1, (5-Chloro-6-phenylethynyl-1H-benzoimidazol-2-ylsulfanylmethyl)-phosphonic acid] | > 60 | melting point: 210 to 215 °C
10 | CSc1ccc(-c2cc3nc(SCP(=O)(O)O)[nH]c3cc2Cl)cc1 [Example 17, [6-Chloro-5-(4-methylsulfanyl-phenyl)-1H-benzoimidazol-2-ylsulfanylmethyl]-phosphonic acid] | > 60 | 
11 | Cc1cncc(-c2ccc(-c3cc4nc(SCP(=O)(O)O)[nH]c4cc3Cl)cc2)c1 [Example 24, (5-chloro-6-[4-(5-methyl-pyridin-3-yl)-phenyl]-1H-benzo[d]imidazol-2-ylthio)methylphosphonic acid] | > 60 | 
12 | O=P(O)(O)CCc1nc2cc(-c3ccc(-c4ccccc4)cc3)c(Cl)cc2[nH]1 [Example 26, [2-(Biphenyl-4-yl-6-chloro-1H-benzoimidazol-2-yl)-ethyl]-phosphonic acid] | > 60 | 
13 | CN(C)C(=O)c1ccc(-c2cc3nc(SCP(=O)(O)O)[nH]c3cc2Cl)cc1 [Example 14, [6-Chloro-5-(4-dimethylcarbamoyl-phenyl)-1H-benzoimidazol-2-ylsulfanylmethyl]-phosphonic acid] | > 60 | 
14 | O=P1(CSc2nc3cc(-c4ccc(-c5ccccc5)cc4)c(Cl)cc3[nH]2)OCCC(c2cccc(Cl)c2)O1 (centres unmarked) [Example 30, 5-Biphenyl-4-yl-6-chloro-2-[4-(3-chloro-phenyl)-2-oxo-2lambda*5*-[1,3,2]-dioxaphosphinan-2-ylmethylsulfanyl]-1H-benzoimidazole] | > 60 | 
15 | O=P(O)(O)CSc1nc2cc(-c3ccc(N4CCOCC4)cc3)c(Cl)cc2[nH]1 [Example 20, (5-chloro-6-(4-morpholinophenyl)-1H-benzo[d]imidazol-2-ylthio)methylphosphonic acid] | > 60 | 
16 | Cn1ccc2cc(-c3cc4nc(SCP(=O)(O)O)[nH]c4cc3Cl)ccc21 [Example 28] |  | EC50 [1]: 58 nM
17 | O=P(O)(O)CSc1nc2cc(C#Cc3ccc(F)cc3F)c(Cl)cc2[nH]1 [Example 8] |  | EC50 [1]: 184 nM
18 | O=P(O)(O)CCCc1nc2cc(-c3ccc(-c4ccccc4)cc3)c(Cl)cc2[nH]1 [Example 25, [3-(5-Biphenyl-4-yl-6-chloro-1H-benzoimidazol-2-yl)-propyl]-phosphonic acid] | > 60 | 

Row | Structure (SMILES) | Emax [1] [%] | further results
19 | O=P(O)(O)CSc1nc2cc(-c3ccc4[nH]ccc4c3)c(Cl)cc2[nH]1 [Example 27] |  | EC50 [1]: 233 nM
20 | NC(=O)c1ncn([C@@H]2O[C@H](CO)[C@@H](O)[C@H]2O)c1N [AICAR] |  | blood glucose reduction (ob/ob and db/db mice): 35%
21 | O=P(O)(O)CSc1nc2cc(C#Cc3ccc(Cl)cc3)c(Cl)cc2[nH]1 [Example 11] | > 60 | 
22 | CCC(=O)SCCOP(=O)(CSc1nc2cc(-c3ccc(-c4ccccc4)cc3)c(Cl)cc2[nH]1)OCCSC(=O)CC [Example 33, Thiopropionic acid S-{2-[(5-biphenyl-4-yl-6-chloro-1H-benzoimidazol-2-ylsulfanylmethyl)-(2-propionylsulfanyl-ethoxy)-phosphinoyloxy]-ethyl}ester] | > 60 | 
23 | COc1ccc(-c2ccc(-c3cc4nc(SCP(=O)(O)O)[nH]c4cc3Cl)cc2)cn1 [Example 21, (5-chloro-6-(4-(6-methoxypyridin-3-yl)phenyl)-1H-benzo[d]imidazol-2-ylthio)methylphosphonic acid] | > 60 | 
24 | O=P(O)(O)CSc1nc2cc(C#Cc3cccnc3)c(Cl)cc2[nH]1 [Example 10] | > 60 | 
25 | O=P(O)(O)CSc1nc2cc(-c3ccc(Cl)c(F)c3)c(Cl)cc2[nH]1 [Example 15, [6-Chloro-5-(4-chloro-3-fluoro-phenyl)-1H-benzoimidazol-2-ylsulfanylmethyl]phosphonic acid] | > 60 | 
26 | O=P(O)(O)CSc1nc2cc(C#Cc3ccc(C(F)(F)F)cc3)c(Cl)cc2[nH]1 [Example 3] | > 60 | 
27 | CCC(=O)SCCOP(=O)(O)CSc1nc2cc(-c3ccc(-c4ccccc4)cc3)c(Cl)cc2[nH]1 [Example 32, Thiopropionic acid S-{2-[(5-biphenyl-4-yl-6-chloro-1H-benzoimidazol-2-ylsulfanylmethyl)-hydroxy-phosphinoyloxy]-ethyl}ester] | > 60 | 
28 | O=P(O)(O)CSc1nc2cc(C#Cc3ccccn3)c(Cl)cc2[nH]1 [Example 5] | > 60 | 
29 | COc1ccc(COP(=O)(O)CSc2nc3cc(-c4ccc(-c5ccccc5)cc4)c(Cl)cc3[nH]2)cc1F [Example 31, (5-Biphenyl-4-yl-6-chloro-1H-benzoimidazol-2-ylsulfanylmethyl)-phosphonic acid mono-(3-fluoro-4-methoxy-benzyl)ester] | > 60 | 
30 | O=C(NC1CC1)c1cc(-c2cc3nc(SCP(=O)(O)O)[nH]c3cc2Cl)ccc1Cl [Example 18, [6-Chloro-5-(4-chloro-3-cyclopropylcarbamoyl-phenyl)-1H-benzoimidazol-2-ylsulfanylmethyl]-phosohonic acid] | > 60 | 
31 | O=[P@]1(CSc2nc3cc(-c4ccc(-c5ccccc5)cc4)c(Cl)cc3[nH]2)OCC[C@@H](c2ccncc2)O1 [Example 34, 5-Biphenyl-4-yl-6-chloro-2-(cis{5[1-yl-(4-pyridyl)]}-1-phosphono-2,6-dioxophosphinan-2-ylmethylsulfanyl)-1H-benzoimidazole] | > 60 | 
32 | O=P(O)(O)CSc1nc2cc(-c3ccc(-c4ccccc4)cc3)c(Cl)cc2[nH]1 [Example 29] |  | EC50 [1]: 137 nM
33 | CC(C)(C)C(=O)OCOP(=O)(CSc1nc2cc(-c3ccc(-c4ccccc4)cc3)c(Cl)cc2n1COC(=O)C(C)(C)C)OCOC(=O)C(C)(C)C [Example 36, 2,2-Dimethyl-propionic acid[5-biphenyl-4-yl-6-chloro-1-(2,2-dimethylpropionyl-oxymethyl)-1H-benzoimidazol-2-ylsulfanylmethyl]-(2,2-dimethyl-propionyl-oxymethoxy)-phosohinoyloxymethyl ester] | > 60 | melting point: 210 to 215 °C
34 | O=[P@@]1(CSc2nc3cc(-c4ccc(-c5ccccc5)cc4)c(Cl)cc3[nH]2)OCC[C@@H](c2ccncc2)O1 [Example 35, 5-Biphenyl-4-yl-6-chloro-2-(trans{5[1-yl-(4-pyridyl)]}-1-phosphono-2,6-dioxophosphinan-2-ylmethylsulfanyl)-1H-benzoimidazole] | > 60 | 
35 | CC(C)Oc1ccc(-c2ccc(-c3cc4nc(SCP(=O)(O)O)[nH]c4cc3Cl)cc2)cc1 [Example 23, (5-chloro-6-(4′-isopropoxy-biphenyl-4-yl)-1H-benzo[d]imidazol-2-ylthio)methylphosphonic acid] | > 60 | 
36 | O=P(O)(O)CSc1nc2cc(C#Cc3ccc(CO)cc3)c(Cl)cc2[nH]1 [Example 7] | > 60 | 
